According to US6770597B2, “Benzohydrazide derivatives as herbicides and desiccant compositions containing them” (Ishihara Sangyo Kaisha, Ltd., priority 2002, dated 2004):

Experiments:
Type in all cases: in vivo
[1] = system: lambsquarters (Chenopodium album, CHEAL); assay: Greenhouse herbicide screen, post-emerge application, phytotoxicity rating; details: POST emergent, 14 days after application, scale 0-100
From the text: (§1) A standard greenhouse herbicide activity screening system was used to evaluate the herbicidal efficacy and crop safety of these test compounds. Seven broadleaf weed species including redroot pigweed (Amaranthus retrofiexus, AMARE), velvetleaf (Abutilon theophrasti, ABUTH), sicklepod (Cassia obtusifolia, CASOB), ivyleaf morningglory (Ipomoea hederacea, IPOHE), lambsquarters (Chenopodium album, CHEAL), common ragweed (Ambrosia artemisiifolia L., AMBEL), and cocklebur (Xanthium strumarium, XANST) were used as test species. Four grass weed species including green foxtail (Setaria viridis, SETVI), barnyardgrass (Echinochloa crus-galli, ECHCG), johnsongrass (Sorghum halepense, SORHA), and large crabgrass (Digitaria sanguinalis, DIGSA) were also used. In addition, four crop species, field corn (Zea mays L., var. Dekalb 535, CORN), soybean (Glycine max L., var. Pella 86, SOY), upland rice (Oryza sp., var.Cocodrie, RICE) and wheat (Triticum aestivum L.) were included.
(§2) All plants were grown in 10 cm square plastic pots which were filled with a sandy loam soil mix. For pre-emerge tests, seeds were planted one day prior to application of the test compounds. For post-emerge tests, seeds were planted 8-21 days prior to the test to allow emergence and good foliage development prior to application of the test substances. At the time of the post-emerge application, plants of all species were usually at the 2-3 leaf stage of development.
(§3) All test compounds were dissolved in acetone and applied to the test units in a volume of 187 l/ha. Test materials were applied at rates ranging from 15 g ai/ha to 1000 g ai/ha using a track sprayer equipped with a TJ8001E even flow flat fan spray nozzle. Plants were arranged on a shelf so that the top of the canopy (post-emerge) or top of the soil surface (pre-emerge) was 40-45 cm below the nozzle. Pressurized air was used to force the test solution through the nozzle as it was mechanically advanced (via electrically driven chain drive) over the top of all test plants/pots. This application simulates a typical commercial field herbicide application.
(§4) Pre-emergence tests were top watered immediately after treatment to incorporate the test materials, then routinely top-watered for normal growth. Post-emerge test units were always bottom-watered.
(§5) At 14 days after application of the test materials, phytotoxicity ratings were recorded. A rating scale of 0-100 was used as previously described in Research Methods in Weed Science, 2nd edition, B. Truelove, Ed., Southern Weed Science Society, Auburn University, Auburn, Ala., 1977. Briefly, “0” corresponds to no damage and “100” corresponds to complete death of all plants in the test unit. This scale was used both to determine efficacy against weed species and damage to crop species. Herbicide activity data for various compounds of this invention, which are shown by compound No. in Tables 1-12, are shown in Tables 13 and 14.

[2] = system: sicklepod (Cassia obtusifolia, CASOB); assay: as above; details: POST emergent, 14 days after application, scale 0-100
From the text: as §1, §2, §3, §4, §5

[3] = system: johnsongrass (Sorghum halepense, SORHA); assay: as above; details: POST emergent, 14 days after application, scale 0-100
From the text: as §1, §2, §3, §4, §5

[4] = system: large crabgrass (Digitaria sanguinalis, DIGSA); assay: as above; details: POST emergent, 14 days after application, scale 0-100
From the text: as §1, §2, §3, §4, §5

[5] = system: velvetleaf (Abutilon theophrasti, ABUTH); assay: as above; details: POST emergent, 14 days after application, scale 0-100
From the text: as §1, §2, §3, §4, §5

[6] = system: cocklebur (Xanthium strumarium, XANST); assay: as above; details: POST emergent, 14 days after application, scale 0-100
From the text: as §1, §2, §3, §4, §5

[7] = system: ivyleaf morningglory (Ipomoea hederacea, IPOHE); assay: as above; details: POST emergent, 14 days after application, scale 0-100
From the text: as §1, §2, §3, §4, §5

[8] = system: common ragweed (Ambrosia artemisiifolia L., AMBEL); assay: as above; details: POST emergent, 14 days after application, scale 0-100
From the text: as §1, §2, §3, §4, §5

[9] = system: green foxtail (Setaria viridis, SETVI); assay: as above; details: POST emergent, 14 days after application, scale 0-100
From the text: as §1, §2, §3, §4, §5

[10] = system: barnyardgrass (Echinochloa crus-galli, ECHCG); assay: as above; details: POST emergent, 14 days after application, scale 0-100
From the text: as §1, §2, §3, §4, §5

[11] = system: redroot pigweed (Amaranthus retrofiexus, AMARE); assay: as above; details: POST emergent, 14 days after application
From the text: as §1, §2, §3, §4, §5

[12] = system: lambsquarters (Chenopodium album, CHEAL); assay: Greenhouse herbicide screen, pre-emerge application, phytotoxicity rating; details: PRE emergent, 14 days after application, rating scale 0-100
From the text: as §1, §2, §3, §4, §5

[13] = system: sicklepod (Cassia obtusifolia, CASOB); assay: as above; details: PRE emergent, 14 days after application, rating scale 0-100
From the text: as §1, §2, §3, §4, §5

[14] = system: johnsongrass (Sorghum halepense, SORHA); assay: as above; details: PRE emergent, 14 days after application, rating scale 0-100
From the text: as §1, §2, §3, §4, §5

[15] = system: large crabgrass (Digitaria sanguinalis, DIGSA); assay: as above; details: PRE emergent, 14 days after application, rating scale 0-100
From the text: as §1, §2, §3, §4, §5

[16] = system: velvetleaf (Abutilon theophrasti, ABUTH); assay: as above; details: PRE emergent, 14 days after application, rating scale 0-100
From the text: as §1, §2, §3, §4, §5

[17] = system: cocklebur (Xanthium strumarium, XANST); assay: as above; details: PRE emergent, 14 days after application, rating scale 0-100
From the text: as §1, §2, §3, §4, §5

[18] = system: ivyleaf morningglory (Ipomoea hederacea, IPOHE); assay: as above; details: PRE emergent, 14 days after application, rating scale 0-100
From the text: as §1, §2, §3, §4, §5

[19] = system: common ragweed (Ambrosia artemisiifolia L., AMBEL); assay: as above; details: PRE emergent, 14 days after application, rating scale 0-100
From the text: as §1, §2, §3, §4, §5

[20] = system: green foxtail (Setaria viridis, SETVI); assay: as above; details: PRE emergent, 14 days after application, rating scale 0-100
From the text: as §1, §2, §3, §4, §5

[21] = system: barnyardgrass (Echinochloa crus-galli, ECHCG); assay: as above; details: PRE emergent, 14 days after application, rating scale 0-100
From the text: as §1, §2, §3, §4, §5

[22] = system: redroot pigweed (Amaranthus retrofiexus, AMARE); assay: as above; details: PRE emergent, 14 days after application, rating scale 0-100
From the text: as §1, §2, §3, §4, §5

## CN(N=C(C(C)(C)C)C(C)(C)C)C(=O)c1cc(-n2c(=O)cc(C(F)(F)F)n(C)c2=O)c(F)cc1Cl [Compound 6-8, 2-chloro-5-(3,6-dihydro-3-methyl-2,6-dioxo-4-(trifluoromethyl)-1(2H)-pyrimidinyl)-4-fluoro-benzoic acid, 2-[1-(1,1-dimethylethyl)-2,2-dimethylpropylidene]-1-methylhydrazide]
[1]; 63 g ai/ha
  phytotoxicity rating CHEAL: 80
[1]; 250 g ai/ha
  phytotoxicity rating CHEAL: 100
[2]; 63 g ai/ha
  phytotoxicity rating CASOB: 50
[2]; 250 g ai/ha
  phytotoxicity rating CASOB: 60
[3]; 63 g ai/ha
  phytotoxicity rating SORHA: 65
[3]; 250 g ai/ha
  phytotoxicity rating SORHA: 95
[4]; 63 g ai/ha
  phytotoxicity rating DIGSA: 50
[4]; 250 g ai/ha
  phytotoxicity rating DIGSA: 60
[5]; 63 g ai/ha
  phytotoxicity rating ABUTH: 50
[5]; 250 g ai/ha
  phytotoxicity rating ABUTH: 100
[6]; 63 g ai/ha
  phytotoxicity rating XANST: 35
[6]; 250 g ai/ha
  phytotoxicity rating XANST: 100
[7]; 63 g ai/ha
  phytotoxicity rating IPOHE: 100
[7]; 250 g ai/ha
  phytotoxicity rating IPOHE: 100
[8]; 63 g ai/ha
  phytotoxicity rating AMBEL: 70
[8]; 250 g ai/ha
  phytotoxicity rating AMBEL: 70
[9]; 63 g ai/ha
  phytotoxicity rating SETVI: 50
[9]; 250 g ai/ha
  phytotoxicity rating SETVI: 75
[10]; 63 g ai/ha
  phytotoxicity rating ECHCO: 60
[10]; 250 g ai/ha
  phytotoxicity rating ECHCO: 85
[11]; 63 g ai/ha, scale 0-100 (0 no damage, 100 complete death)
  phytotoxicity rating AMARE: 99
[11]; 250 g ai/ha, scale 0-100
  phytotoxicity rating AMARE: 100
[12]; 63 g ai/ha
  phytotoxicity rating CHEAL: 100
[12]; 250 g ai/ha
  phytotoxicity rating CHEAL: 100
[13]; 63 g ai/ha
  phytotoxicity rating CASOB: 20
[13]; 250 g ai/ha
  phytotoxicity rating CASOB: 70
[14]; 63 g ai/ha
  phytotoxicity rating SORHA: 55
[14]; 250 g ai/ha
  phytotoxicity rating SORHA: 100
[15]; 63 g ai/ha
  phytotoxicity rating DIGSA: 60
[15]; 250 g ai/ha
  phytotoxicity rating DIGSA: 95
[16]; 63 g ai/ha
  phytotoxicity rating ABUTH: 99
[16]; 250 g ai/ha
  phytotoxicity rating ABUTH: 99
[17]; 63 g ai/ha
  phytotoxicity rating XANST: 0
[17]; 250 g ai/ha
  phytotoxicity rating XANST: 70
[18]; 63 g ai/ha
  phytotoxicity rating IPOHE: 60
[18]; 250 g ai/ha
  phytotoxicity rating IPOHE: 100
[19]; 63 g ai/ha
  phytotoxicity rating AMBEL: 0
[19]; 250 g ai/ha
  phytotoxicity rating AMBEL: 99
[20]; 63 g ai/ha
  phytotoxicity rating SETVI: 55
[20]; 250 g ai/ha
  phytotoxicity rating SETVI: 99
[21]; 63 g ai/ha
  phytotoxicity rating ECHCG: 30
[21]; 250 g ai/ha
  phytotoxicity rating ECHCG: 85
[22]; 63 g ai/ha
  phytotoxicity rating AMARE: 100
[22]; 250 g ai/ha
  phytotoxicity rating AMARE: 100
